# Where two headings read alike, the source gives them in different places.
# Legend:
# Assay type in all cases: biochemical
# human TOR = biological target: T1, human TOR (Homo sapiens, UniProt P42345); assay: mTOR enzyme assay (DELFIA, His6-S6K substrate); details: read-out: mTOR Kinase Avg. IC50
# T1 construct: FLAG
# PI3K-delta = PI3K-delta (Homo sapiens, UniProt O00329); assay: PI3K-delta fluorescence polarization assay; details: read-out: PI3Kδ Avg. IC50
# PI3K-alpha = PI3K-alpha (Homo sapiens, UniProt P42336); assay: PI3K-alpha fluorescence polarization assay
# Sequence of PI3K-alpha (P42336 whole entry, species assumed): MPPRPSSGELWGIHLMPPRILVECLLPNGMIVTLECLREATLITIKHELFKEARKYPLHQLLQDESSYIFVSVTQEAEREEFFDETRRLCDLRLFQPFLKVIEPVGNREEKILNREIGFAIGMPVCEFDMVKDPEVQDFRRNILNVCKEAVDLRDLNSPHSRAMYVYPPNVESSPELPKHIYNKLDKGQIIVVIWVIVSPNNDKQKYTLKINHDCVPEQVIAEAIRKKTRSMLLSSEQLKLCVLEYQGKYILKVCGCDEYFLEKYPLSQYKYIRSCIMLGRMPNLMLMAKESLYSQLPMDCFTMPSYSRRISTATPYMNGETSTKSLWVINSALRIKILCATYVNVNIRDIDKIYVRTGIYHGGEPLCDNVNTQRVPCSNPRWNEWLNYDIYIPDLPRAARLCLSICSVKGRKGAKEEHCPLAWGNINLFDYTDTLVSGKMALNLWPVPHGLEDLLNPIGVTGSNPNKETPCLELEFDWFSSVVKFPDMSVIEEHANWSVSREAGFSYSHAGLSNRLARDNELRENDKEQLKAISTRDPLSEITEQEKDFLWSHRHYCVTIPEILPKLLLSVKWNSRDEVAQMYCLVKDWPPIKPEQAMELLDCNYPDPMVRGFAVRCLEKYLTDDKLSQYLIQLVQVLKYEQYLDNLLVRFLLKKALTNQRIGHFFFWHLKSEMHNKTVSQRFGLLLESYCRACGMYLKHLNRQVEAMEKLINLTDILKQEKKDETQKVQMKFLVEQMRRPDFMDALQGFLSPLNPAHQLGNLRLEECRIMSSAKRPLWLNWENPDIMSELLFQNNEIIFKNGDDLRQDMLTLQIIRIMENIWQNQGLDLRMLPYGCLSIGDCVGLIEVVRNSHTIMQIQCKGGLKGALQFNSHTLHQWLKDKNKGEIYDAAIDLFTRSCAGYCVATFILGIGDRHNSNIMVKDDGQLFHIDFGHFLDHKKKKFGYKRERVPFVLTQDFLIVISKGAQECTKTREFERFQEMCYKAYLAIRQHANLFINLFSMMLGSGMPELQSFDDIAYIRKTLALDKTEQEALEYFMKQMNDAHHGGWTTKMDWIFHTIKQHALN
# Sequence of PI3K-alpha (P27986 whole entry partner, species assumed): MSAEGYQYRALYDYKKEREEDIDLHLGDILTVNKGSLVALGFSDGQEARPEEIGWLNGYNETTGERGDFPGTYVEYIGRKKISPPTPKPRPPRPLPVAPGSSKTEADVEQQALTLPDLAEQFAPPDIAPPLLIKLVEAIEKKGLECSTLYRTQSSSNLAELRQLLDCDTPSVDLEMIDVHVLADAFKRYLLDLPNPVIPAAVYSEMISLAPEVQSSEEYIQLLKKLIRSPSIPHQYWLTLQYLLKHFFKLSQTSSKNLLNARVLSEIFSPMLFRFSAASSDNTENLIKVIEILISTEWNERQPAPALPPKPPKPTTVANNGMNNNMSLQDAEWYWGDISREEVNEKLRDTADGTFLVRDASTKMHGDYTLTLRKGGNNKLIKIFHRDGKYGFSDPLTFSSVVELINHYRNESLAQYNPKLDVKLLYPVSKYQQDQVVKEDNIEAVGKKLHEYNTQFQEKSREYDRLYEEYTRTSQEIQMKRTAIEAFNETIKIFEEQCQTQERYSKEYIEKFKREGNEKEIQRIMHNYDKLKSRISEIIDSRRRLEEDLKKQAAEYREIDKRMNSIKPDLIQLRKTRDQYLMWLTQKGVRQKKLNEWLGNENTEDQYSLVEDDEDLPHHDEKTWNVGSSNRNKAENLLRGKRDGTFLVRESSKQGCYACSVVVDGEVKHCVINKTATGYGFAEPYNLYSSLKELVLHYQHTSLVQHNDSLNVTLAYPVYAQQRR
# PI3K-beta = PI3K-beta (Homo sapiens, UniProt P42338); assay: PI3K-beta fluorescence polarization assay; details: read-out: PI3Kβ Avg. IC50
# Sequence of PI3K-beta (P42338 whole entry, species assumed, the tested form may be a part): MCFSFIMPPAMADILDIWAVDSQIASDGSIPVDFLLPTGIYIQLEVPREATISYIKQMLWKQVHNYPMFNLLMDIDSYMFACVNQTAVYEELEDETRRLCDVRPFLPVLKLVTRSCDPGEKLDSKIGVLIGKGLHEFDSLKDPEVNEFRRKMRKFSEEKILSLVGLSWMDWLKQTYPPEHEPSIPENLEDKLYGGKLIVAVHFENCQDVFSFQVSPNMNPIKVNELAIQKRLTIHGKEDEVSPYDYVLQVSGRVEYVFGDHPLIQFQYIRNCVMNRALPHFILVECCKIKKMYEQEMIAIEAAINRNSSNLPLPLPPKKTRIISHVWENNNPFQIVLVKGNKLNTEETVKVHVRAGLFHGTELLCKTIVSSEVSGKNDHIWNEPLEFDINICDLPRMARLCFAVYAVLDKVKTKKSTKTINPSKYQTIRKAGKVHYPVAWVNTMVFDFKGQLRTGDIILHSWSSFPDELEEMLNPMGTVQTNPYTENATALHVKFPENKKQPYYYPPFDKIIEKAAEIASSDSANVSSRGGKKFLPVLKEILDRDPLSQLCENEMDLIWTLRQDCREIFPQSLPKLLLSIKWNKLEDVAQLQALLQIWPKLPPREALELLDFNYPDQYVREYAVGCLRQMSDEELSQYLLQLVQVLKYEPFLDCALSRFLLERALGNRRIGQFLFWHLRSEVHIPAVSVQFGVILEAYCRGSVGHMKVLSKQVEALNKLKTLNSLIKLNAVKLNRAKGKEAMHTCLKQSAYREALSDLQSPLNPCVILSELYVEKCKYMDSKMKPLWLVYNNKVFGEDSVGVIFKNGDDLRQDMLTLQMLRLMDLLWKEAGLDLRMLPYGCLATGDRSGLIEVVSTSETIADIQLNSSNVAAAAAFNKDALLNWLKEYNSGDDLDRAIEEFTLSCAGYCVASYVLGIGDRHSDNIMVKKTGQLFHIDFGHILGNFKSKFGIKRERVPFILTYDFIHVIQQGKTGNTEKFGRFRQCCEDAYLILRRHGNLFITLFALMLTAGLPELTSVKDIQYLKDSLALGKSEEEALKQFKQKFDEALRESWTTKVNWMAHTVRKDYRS
# Sequence of PI3K-beta (P27986 whole entry partner, species assumed, the tested form may be a part): as the sequence (P27986 whole entry partner, species assumed) above
# In short: (§1)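 Inhibition is derived from a polarization signal: after a 1 h, 25° C kinase step (25 μM ATP, 2.5 μM diC8-PIP2, pH 7), EDTA stops the reaction and the GRP1 PH domain/TMR-IP4 pair reports lipid product.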
# PI3K-gamma = PI3K-gamma (Homo sapiens, UniProt P48736); assay: PI3K-gamma fluorescence polarization assay; details: PI3Kγ Avg. IC50
# Sequence of PI3K-gamma (P48736 whole entry, species assumed): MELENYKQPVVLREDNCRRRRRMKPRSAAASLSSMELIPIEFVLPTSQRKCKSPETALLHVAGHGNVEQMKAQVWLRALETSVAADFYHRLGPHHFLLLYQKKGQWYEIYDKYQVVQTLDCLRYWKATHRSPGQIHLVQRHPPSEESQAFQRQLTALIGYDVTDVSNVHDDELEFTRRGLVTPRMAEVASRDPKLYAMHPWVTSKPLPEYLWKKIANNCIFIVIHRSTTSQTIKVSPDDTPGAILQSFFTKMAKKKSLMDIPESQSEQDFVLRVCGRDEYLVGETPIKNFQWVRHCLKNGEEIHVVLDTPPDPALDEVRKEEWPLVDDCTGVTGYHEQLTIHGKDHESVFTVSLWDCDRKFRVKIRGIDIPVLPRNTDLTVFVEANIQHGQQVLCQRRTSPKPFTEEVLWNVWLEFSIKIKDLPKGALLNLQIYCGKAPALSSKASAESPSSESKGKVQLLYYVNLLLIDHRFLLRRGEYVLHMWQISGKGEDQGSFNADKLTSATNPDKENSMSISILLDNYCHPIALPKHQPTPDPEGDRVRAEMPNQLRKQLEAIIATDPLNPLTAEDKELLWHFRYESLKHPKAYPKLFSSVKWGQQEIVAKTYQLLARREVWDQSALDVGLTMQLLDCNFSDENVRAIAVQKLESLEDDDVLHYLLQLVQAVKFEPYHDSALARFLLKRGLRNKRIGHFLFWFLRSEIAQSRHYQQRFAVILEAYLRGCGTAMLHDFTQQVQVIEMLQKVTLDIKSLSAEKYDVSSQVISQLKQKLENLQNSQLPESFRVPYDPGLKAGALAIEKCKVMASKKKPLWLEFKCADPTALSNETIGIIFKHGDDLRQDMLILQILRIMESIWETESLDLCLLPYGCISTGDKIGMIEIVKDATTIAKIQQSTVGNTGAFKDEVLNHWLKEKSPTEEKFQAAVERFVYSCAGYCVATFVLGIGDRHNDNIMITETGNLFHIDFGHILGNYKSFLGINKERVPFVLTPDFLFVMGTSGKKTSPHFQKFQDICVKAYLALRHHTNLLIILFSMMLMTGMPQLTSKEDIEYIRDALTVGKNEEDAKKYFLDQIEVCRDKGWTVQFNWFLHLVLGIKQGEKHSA
# In short: as §1
# Sequence of PI3K-delta (O00329 whole entry, species assumed): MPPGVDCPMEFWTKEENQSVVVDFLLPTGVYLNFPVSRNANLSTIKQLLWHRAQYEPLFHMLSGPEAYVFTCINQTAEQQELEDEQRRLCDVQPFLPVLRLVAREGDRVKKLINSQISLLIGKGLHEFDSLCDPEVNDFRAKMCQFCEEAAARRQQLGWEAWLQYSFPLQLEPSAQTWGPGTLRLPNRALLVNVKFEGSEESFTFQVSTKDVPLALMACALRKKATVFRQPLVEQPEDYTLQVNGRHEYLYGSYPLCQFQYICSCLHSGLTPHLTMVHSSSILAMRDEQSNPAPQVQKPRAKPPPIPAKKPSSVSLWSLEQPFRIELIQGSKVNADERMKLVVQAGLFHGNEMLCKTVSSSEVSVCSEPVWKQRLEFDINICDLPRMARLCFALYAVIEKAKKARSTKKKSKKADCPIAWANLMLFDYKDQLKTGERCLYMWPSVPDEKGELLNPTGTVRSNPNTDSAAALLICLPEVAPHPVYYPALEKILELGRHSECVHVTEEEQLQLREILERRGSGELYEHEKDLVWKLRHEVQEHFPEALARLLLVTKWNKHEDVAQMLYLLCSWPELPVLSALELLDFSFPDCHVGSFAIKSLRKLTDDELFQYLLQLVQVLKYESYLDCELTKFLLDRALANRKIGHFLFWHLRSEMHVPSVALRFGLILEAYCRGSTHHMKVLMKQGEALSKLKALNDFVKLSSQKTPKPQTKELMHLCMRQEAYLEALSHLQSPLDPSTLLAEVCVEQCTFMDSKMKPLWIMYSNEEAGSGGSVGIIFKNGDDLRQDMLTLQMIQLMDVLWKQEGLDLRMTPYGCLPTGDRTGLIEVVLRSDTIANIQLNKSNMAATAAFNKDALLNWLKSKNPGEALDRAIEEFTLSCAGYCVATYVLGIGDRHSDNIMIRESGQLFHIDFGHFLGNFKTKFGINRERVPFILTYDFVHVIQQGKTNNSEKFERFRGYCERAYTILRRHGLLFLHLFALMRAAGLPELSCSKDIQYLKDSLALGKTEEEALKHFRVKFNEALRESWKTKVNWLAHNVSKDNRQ
# Sequence of PI3K-delta (P27986 whole entry partner, species assumed): as the sequence (P27986 whole entry partner, species assumed) above
Compound,IC50 (human TOR) [nM],IC50 (PI3K-delta) [nM],IC50 (PI3K-alpha; read-out: PI3Kα Avg. IC50) [nM],IC50 (PI3K-beta) [nM],IC50 (PI3K-gamma) [nM],IC50 (PI3K-alpha; PI3Kα Avg. IC50) [nM]
"COc1ccc2c(c1)c(/C=C1\Oc3cc(O)cc(O)c3C1=O)c(C1CC1)n2CCN1CCN(C)CC1 [Example 302, (2Z)-2-({2-Cyclopropyl-5-methoxy-1-[2-(4-methylpiperazin-1-yl)ethyl]-1H-indol-3-yl}methylene)-4,6-dihydroxy-1-benzofuran-3(2H)-one]",300,< 2.5,17,14,764,–
"COc1ccc2c(c1)c(/C=C1\Oc3cc(O)c(F)cc3C1=O)c(C)n2CCN1CCN(C)CC1 [Example 351, (2Z)-5-Fluoro-6-hydroxy-2-({5-methoxy-2-methyl-1-[2-(4-methylpiperazin-1-yl)ethyl]-1H-indol-3-yl}methylene)-1-benzofuran-3(2H)-one]",> 800,9,66,505,3270,–
"COc1ccc2[nH]c(C(=O)N3CCN(C)CC3)c(/C=C3\Oc4cc(O)cc(O)c4C3=O)c2c1 [Example 331, (2Z)-4,6-Dihydroxy-2-({5-methoxy-2-[(4-methylpiperazin-1-yl)carbonyl]-1H-indol-3-yl}methylene)-1-benzofuran-3(2H)-one]",49.5,6.5,4,5.5,39.5,–
"COc1ccc2c(c1)c(/C=C1\Oc3cc(O)cc(O)c3C1=O)c(C)n2CCN1CCC(O)CC1 [Example 320, (2Z)-4,6-Dihydroxy-2-({1-[2-(4-hydroxypiperidin-1-yl)ethyl]-5-methoxy-2-methyl-1H-indol-3-yl}methylene)-1-benzofuran-3(2H)-one]",12.8,0.8,3,22,36.5,–
"COc1ccc2[nH]cc(/C=C3\Oc4cc(O)cc(O)c4C3=O)c2c1 [Example 59, (2Z)-4,6-dihydroxy-2-[(5-methoxy-1H-indol-3-yl)methylene]-1-benzofuran-3(2H)-one]",265,70,–,173,269,30.2
"COc1ccc2[nH]c(C(=O)O)c(/C=C3\Oc4cc(O)cc(O)c4C3=O)c2c1 [Example 339, 3-[(Z)-(4,6-Dihydroxy-3-oxo-1-benzofuran-2(3H)-ylidene)methyl]-5-methoxy-1H-indole-2-carboxylic acid]",39.5,20.3,5.5,93.7,8.5,–
"COc1ccc2c(c1)c(C=C1Oc3cc(O)cc(O)c3C1=O)cn2CCCN1CCN(CCO)CC1 [Example 113, 4,6-dihydroxy-2-[(1-{3-[4-(2-hydroxyethyl)piperazin-1-yl]propyl}-5-methoxy-1H-indol-3-yl)methylene]-1-benzofuran-3(2H)-one]",1650,7,–,243,1360,37
"COc1ccc2c(c1)c(C=C1Oc3cc(O)cc(O)c3C1=O)c(C)n2CCCCN1CCN(C)CC1 [Example 96, 4,6-dihydroxy-2-({5-methoxy-2-methyl-1-[4-(4-methylpiperazin-1-yl)butyl]-1H-indol-3-yl}methylene)-1-benzofuran-3(2H)-one]",< 31,2,11.3,10,238,–
"COc1ccc2c(c1)c(C=C1Oc3cc(O)cc(O)c3C1=O)c(C)n2CCCN1CCN(CCN2CCOCC2)CC1 [Example 105, 4,6-dihydroxy-2-[(5-methoxy-2-methyl-1-{3-[4-(2-morpholin-4-ylethyl)piperazin-1-yl]propyl}-1H-indol-3-yl)methylene]-1-benzofuran-3(2H)-one]",140,2,9.6,50.5,724,–
"COc1ccc2[nH]c(-c3cncnc3)c(/C=C3\Oc4cc(O)cc(O)c4C3=O)c2c1 [Example 354, (2Z)-4,6-Dihydroxy-2-[(5-methoxy-2-pyrimidin-5-yl-1H-indol-3-yl)methylene]-1-benzofuran-3(2H)-one]",18,14.5,6.5,44,55,–
"COc1ccc2c(c1)c(C=C1Oc3cc(O)cc(O)c3C1=O)c(C)n2CCN1CCOCC1 [Example 107, 4,6-dihydroxy-2-{[5-methoxy-2-methyl-1-(2-morpholin-4-ylethyl)-1H-indol-3-yl]methylene}-1-benzofuran-3(2H)-one]",< 25,5.8,–,112,154,11.3
"COc1ccc2c(c1)c(/C=C1\Oc3cc(O)cc(O)c3C1=O)c(-c1cnn(C)c1)n2CC(=O)N(C)C [Example 329, 2-{3-[(Z)-(4,6-Dihydroxy-3-oxo-1-benzofuran-2(3H)-ylidene)methyl]-5-methoxy-2-(1-methyl-1H-pyrazol-4-yl)-1H-indol-1-yl}-N,N-dimethylacetamide]",39,18.5,12.5,51.6,130,–
"COc1ccc2c(c1)c(/C=C1\Oc3cc(O)ccc3C1=O)c(C)n2CCCN1CCCC1 [Example 356, (2Z)-6-Hydroxy-2-{[5-methoxy-2-methyl-1-(3-pyrrolidin-1-ylpropyl)-1H-indol-3-yl]methylene}-1-benzofuran-3(2H)-one]",> 800,1.2,15.5,116,408,–
"COc1ccc2c(c1)c(/C=C1\Oc3cc(O)cc(C)c3C1=O)c(C)n2CCN1CCN(C)CC1 [Example 338, (2Z)-6-Hydroxy-2-({5-methoxy-2-methyl-1-[2-(4-methylpiperazin-1-yl)ethyl]-1H-indol-3-yl}methylene)-4-methyl-1-benzofuran-3(2H)-one]",> 160,3,22,57.7,666,–
"COc1ccc2c(c1)c(/C=C1\Oc3cc(O)cc(O)c3C1=O)c(C(F)(F)F)n2CCn1cccn1 [Example 337, (2Z)-4,6-Dihydroxy-2-({5-methoxy-1-[2-(1H-pyrazol-1-yl)ethyl]-2-(trifluoromethyl)-1H-indol-3-yl}methylene)-1-benzofuran-3(2H)-one]",20.5,9.7,13,75.3,7,–
"COc1cc2c(C=C3Oc4cc(O)cc(O)c4C3=O)c(C)n(C)c2cc1C [Example 185, 4,6-dihydroxy-2-[(5-methoxy-1,2,6-trimethyl-1H-indol-3-yl)methylene]-1-benzofuran-3(2H)-one]",130,38,32.3,96.5,403,–
"COc1ccc2c(c1)c(/C=C1\Oc3cc(O)cc(O)c3C1=O)c(C1CC1)n2CCn1ccnc1 [Example 334, (2Z)-2-({2-Cyclopropyl-1-[2-(1H-imidazol-1-yl)ethyl]-5-methoxy-1H-indol-3-yl}methylene)-4,6-dihydroxy-1-benzofuran-3(2H)-one]",< 17,1.5,1.3,1.2,2.2,–
"CCn1c(C)c(/C=C2\Oc3ccc(NC(=O)Nc4ccc(C(=O)N(C)CCN(C)C)cc4)cc3C2=O)c2cc(OC)ccc21 [Compound 639, N-[2-(dimethylamino)ethyl]-4-[({(2Z)-2-[(1-ethyl-5-methoxy-2-methyl-1H-indol-3-yl)methylene]-3-oxo-2,3-dihydro-1-benzofuran-5-yl}carbamoyl)amino]-N-methylbenzamide]",12,1.45,0.33,5,3.42,–
"COc1ccc2c(c1)c(/C=C1\Oc3cc(O)cc(O)c3C1=O)cn2CCN1CCN(C)CC1 [Example 308, (2Z)-4,6-Dihydroxy-2-({5-methoxy-1-[2-(4-methylpiperazin-1-yl)ethyl]-1H-indol-3-yl}methylene)-1-benzofuran-3(2H)-one]",270,5.5,25.5,23.5,1030,–
"O=C1C(=Cc2c(-c3ccccc3)[nH]c3ccccc23)Oc2cc(O)cc(O)c21 [Example 14, 4,6-dihydroxy-2-[(2-phenyl-1H-indol-3-yl)methylene]-1-benzofuran-3(2H)-one]",130,381,–,736,2780,1030
"COc1ccc2[nH]c(-c3cccnc3)c(C=C3Oc4cc(O)cc(O)c4C3=O)c2c1 [Example 91, 4,6-dihydroxy-2-[(5-methoxy-2-pyridin-3-yl-1H-indol-3-yl)methylene]-1-benzofuran-3(2H)-one]",< 50,1.8,< 2.2,5.5,9.5,–
"COc1ccc2[nH]c(-c3ccccc3)c(/C=C3\Oc4cc(O)ccc4C3=O)c2c1 [Example 310, (2Z)-6-Hydroxy-2-[(5-methoxy-2-phenyl-1H-indol-3-yl)methylene]-1-benzofuran-3(2H)-one]",92,0.9,< 2.1,11.5,13.5,–
"Cc1[nH]c2ccc(Br)cc2c1/C=C1\Oc2cc(O)cc(O)c2C1=O [Example 61, (2Z)-2-[(5-bromo-2-methyl-1H-indol-3-yl)methylene]-4,6-dihydroxy-1-benzofuran-3(2H)-one]",190,374,–,567,2220,179

# Source: patent US20090311217A1, “3-SUBSTITUTED-1H-INDOLE COMPOUNDS, THEIR USE AS MTOR KINASE AND PI3 KINASE INHIBITORS, AND THEIR SYNTHESES” (priority 2008, published 2009)
